Results published in ChEMBL document CHEMBL1201862, “PubChem BioAssay data set” (2004).
Blank lines part the entries; values can stand above or below the molecule they belong to. Calls of active or inactive are those of the source.

Tests used:
[1] = target: Voltage-dependent T-type calcium channel subunit alpha-1H (Homo sapiens, UniProt O95180); experiment: inhibition of CACNA1H calcium flux – cell-based, SynthLib3 library, HEK293 Cav3.2, fluorescence (AID 493041); format: functional
Phosphomannomutase 2 = Phosphomannomutase 2 (Homo sapiens, UniProt O15305); experiment: Counter screen SAR assay for PMM2 inhibitors via a fluorescence intensity assay. [Related pubchem assays (depositor defined):AID1545, AID1574]
[2] = target: Phosphoethanolamine/phosphocholine phosphatase (Homo sapiens, UniProt Q8TCT1); experiment: SAR assay for compounds that inhibit PHOSPHO1. [Related pubchem assays (depositor defined):AID1545, AID1565, AID1574]
[3] = target: T1, Mannose-6-phosphate isomerase (Homo sapiens, UniProt P34949); experiment: phosphomannose isomerase inhibition – biochemical, fluorescence intensity, confirmation (AID 1535)
T1 sequence (P34949 whole entry): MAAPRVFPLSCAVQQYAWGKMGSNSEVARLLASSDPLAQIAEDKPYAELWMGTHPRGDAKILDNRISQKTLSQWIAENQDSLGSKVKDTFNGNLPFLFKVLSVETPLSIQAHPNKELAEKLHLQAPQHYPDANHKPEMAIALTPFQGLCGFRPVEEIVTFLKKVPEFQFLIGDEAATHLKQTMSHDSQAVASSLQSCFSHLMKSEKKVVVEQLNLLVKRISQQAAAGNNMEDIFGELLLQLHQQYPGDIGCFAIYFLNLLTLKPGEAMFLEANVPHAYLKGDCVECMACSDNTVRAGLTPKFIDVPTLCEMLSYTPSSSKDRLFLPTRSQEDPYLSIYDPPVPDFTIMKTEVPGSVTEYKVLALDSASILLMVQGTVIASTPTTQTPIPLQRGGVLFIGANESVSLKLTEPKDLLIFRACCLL

Mu-type opioid receptor = Mu-type opioid receptor (Homo sapiens, UniProt P35372); experiment: SAR Analysis of Agonists of the MOR Receptor using an Image-Based Assay - Set 3. [Related pubchem assays (depositor defined):AID1777, AID1785, AID1786, AID1966, AID2133, AID2136, AID2284, AID2285, AID2352]; format: functional
[4] = target: Delta-type opioid receptor (Homo sapiens, UniProt P41143); experiment: SAR Analysis of Agonists of the DOR Receptor using an Image-Based Assay - Set 3. [Related pubchem assays (depositor defined):AID1777, AID1786]; format: functional
[5] = target: T2, Kappa-type opioid receptor (Homo sapiens, UniProt P41145); experiment: SAR analysis of small molecule agonists of the kappa opioid receptor via a luminescent beta-arrestin assay - Set 3. [Related pubchem assays (depositor defined):AID1777, AID1785, AID1786, AID1966, AID2133, AID2136, AID2284, AID2500]; format: functional
[6] = target: T2, Kappa-type opioid receptor; experiment: kappa opioid receptor activation by imaging – image-based, set 3, SAR follow-up (AID 488833); format: functional
Tumor necrosis factor = Tumor necrosis factor (Homo sapiens, UniProt P01375); experiment: analog potency on TNFa NF-kB signaling – cell-based, revised, SAR follow-up (AID 2337); format: functional
HEK293 = experiment: cells; settings: Homo sapiens;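 note: cells exposed to compound for 14 hours overnight before viability readout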
[7] = target: Nucleotide-binding oligomerization domain-containing protein 1 (Homo sapiens, UniProt Q9Y239); experiment: blockers of NOD1 pathway activity – revised, SAR follow-up (AID 2333); format: functional

T2 sequence (P41145 whole entry): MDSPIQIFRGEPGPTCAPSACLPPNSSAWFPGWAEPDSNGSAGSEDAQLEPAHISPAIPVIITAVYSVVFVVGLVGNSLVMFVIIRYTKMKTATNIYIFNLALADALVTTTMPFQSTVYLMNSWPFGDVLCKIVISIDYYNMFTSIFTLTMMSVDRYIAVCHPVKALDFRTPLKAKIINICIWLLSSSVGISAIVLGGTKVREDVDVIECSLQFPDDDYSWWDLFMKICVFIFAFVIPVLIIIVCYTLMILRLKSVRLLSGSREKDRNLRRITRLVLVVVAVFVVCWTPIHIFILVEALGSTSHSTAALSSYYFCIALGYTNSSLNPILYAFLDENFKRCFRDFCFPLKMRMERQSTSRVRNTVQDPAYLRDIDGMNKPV
Tumor necrosis factor, sequence (P01375 whole entry): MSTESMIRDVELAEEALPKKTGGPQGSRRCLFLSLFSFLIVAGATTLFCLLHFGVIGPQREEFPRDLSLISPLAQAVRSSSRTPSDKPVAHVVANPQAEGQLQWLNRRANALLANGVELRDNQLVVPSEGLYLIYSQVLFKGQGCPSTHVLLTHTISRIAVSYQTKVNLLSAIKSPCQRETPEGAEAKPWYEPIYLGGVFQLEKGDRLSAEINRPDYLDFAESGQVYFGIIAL
Mu-type opioid receptor, sequence (P35372 whole entry): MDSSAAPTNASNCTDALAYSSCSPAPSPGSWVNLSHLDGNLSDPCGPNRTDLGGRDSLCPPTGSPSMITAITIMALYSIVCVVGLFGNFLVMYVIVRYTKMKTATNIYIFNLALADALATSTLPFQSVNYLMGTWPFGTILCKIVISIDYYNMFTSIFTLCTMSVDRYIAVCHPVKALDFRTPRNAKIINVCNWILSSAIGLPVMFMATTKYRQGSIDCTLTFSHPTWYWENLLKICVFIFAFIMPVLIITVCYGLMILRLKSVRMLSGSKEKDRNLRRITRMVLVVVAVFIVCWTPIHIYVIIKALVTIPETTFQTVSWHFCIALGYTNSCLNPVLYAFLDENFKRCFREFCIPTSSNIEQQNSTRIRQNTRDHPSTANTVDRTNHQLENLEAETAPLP
Voltage-dependent T-type calcium channel subunit alpha-1H, sequence (O95180 whole entry): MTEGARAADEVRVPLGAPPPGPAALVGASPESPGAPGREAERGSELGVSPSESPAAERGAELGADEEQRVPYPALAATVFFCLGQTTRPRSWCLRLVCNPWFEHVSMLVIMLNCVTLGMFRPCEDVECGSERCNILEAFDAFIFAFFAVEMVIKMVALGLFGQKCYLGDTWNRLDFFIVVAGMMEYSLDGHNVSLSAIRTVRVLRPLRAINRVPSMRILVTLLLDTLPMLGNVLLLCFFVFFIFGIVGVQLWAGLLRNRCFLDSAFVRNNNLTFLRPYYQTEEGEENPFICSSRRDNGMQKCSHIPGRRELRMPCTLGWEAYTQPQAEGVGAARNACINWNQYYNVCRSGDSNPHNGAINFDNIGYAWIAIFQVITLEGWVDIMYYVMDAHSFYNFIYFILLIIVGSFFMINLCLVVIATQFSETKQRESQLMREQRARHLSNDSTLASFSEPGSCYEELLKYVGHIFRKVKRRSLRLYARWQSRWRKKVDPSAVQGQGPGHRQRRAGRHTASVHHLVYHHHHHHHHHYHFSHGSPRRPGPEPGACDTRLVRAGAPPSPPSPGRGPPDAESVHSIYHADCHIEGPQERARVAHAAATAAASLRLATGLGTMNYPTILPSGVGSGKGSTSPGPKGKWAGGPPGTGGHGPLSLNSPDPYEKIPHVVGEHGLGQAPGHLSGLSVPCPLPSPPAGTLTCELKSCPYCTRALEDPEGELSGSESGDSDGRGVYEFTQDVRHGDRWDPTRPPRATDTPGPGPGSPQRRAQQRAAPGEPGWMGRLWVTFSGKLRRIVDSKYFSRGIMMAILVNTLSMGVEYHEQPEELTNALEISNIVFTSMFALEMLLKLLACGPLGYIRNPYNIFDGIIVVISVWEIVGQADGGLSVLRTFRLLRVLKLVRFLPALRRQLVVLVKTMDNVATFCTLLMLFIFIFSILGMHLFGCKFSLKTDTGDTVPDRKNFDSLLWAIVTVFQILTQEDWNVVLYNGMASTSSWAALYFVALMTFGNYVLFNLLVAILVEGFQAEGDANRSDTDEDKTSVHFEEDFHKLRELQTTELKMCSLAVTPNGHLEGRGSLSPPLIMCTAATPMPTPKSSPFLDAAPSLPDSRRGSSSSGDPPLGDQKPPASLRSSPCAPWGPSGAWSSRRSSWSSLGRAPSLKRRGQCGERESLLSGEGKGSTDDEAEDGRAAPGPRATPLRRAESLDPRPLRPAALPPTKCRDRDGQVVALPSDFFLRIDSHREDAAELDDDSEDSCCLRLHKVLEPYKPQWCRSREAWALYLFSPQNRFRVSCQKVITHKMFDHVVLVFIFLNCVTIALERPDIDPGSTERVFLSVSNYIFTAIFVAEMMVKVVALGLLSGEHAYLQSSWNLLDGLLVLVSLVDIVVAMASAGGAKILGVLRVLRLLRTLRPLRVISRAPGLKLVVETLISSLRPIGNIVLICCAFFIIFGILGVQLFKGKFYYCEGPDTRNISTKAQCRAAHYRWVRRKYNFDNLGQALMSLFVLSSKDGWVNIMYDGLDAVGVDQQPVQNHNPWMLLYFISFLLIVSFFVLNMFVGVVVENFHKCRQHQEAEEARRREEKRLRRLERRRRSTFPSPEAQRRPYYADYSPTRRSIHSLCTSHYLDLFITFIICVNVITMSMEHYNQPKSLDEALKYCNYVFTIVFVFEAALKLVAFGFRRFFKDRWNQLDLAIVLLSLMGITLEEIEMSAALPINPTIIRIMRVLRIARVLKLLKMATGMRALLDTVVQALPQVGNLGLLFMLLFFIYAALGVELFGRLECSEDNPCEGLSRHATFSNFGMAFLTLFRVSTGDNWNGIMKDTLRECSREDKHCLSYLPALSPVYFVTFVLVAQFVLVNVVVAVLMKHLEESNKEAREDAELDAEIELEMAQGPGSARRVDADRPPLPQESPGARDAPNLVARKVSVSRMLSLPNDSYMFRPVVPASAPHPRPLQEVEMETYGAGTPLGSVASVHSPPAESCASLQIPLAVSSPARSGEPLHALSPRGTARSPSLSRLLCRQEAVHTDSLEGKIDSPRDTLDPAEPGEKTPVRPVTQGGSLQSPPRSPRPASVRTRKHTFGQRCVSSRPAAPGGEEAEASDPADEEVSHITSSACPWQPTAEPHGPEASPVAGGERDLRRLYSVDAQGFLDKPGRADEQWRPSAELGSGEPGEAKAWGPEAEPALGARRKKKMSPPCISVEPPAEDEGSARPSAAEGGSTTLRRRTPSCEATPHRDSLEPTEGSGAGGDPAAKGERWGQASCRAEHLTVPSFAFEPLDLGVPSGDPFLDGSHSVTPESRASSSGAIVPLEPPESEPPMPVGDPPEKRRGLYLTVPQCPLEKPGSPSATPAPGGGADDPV
Delta-type opioid receptor, sequence (P41143 whole entry): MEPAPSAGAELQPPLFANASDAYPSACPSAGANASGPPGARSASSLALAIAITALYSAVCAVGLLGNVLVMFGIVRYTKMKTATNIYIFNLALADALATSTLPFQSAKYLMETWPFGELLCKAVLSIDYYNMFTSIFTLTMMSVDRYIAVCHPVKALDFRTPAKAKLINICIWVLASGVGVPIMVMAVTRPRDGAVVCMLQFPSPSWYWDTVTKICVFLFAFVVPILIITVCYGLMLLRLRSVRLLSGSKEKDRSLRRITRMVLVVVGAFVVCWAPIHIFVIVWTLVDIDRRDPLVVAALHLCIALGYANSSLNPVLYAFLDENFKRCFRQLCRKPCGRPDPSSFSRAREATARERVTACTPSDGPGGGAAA
Phosphoethanolamine/phosphocholine phosphatase, sequence (Q8TCT1 whole entry): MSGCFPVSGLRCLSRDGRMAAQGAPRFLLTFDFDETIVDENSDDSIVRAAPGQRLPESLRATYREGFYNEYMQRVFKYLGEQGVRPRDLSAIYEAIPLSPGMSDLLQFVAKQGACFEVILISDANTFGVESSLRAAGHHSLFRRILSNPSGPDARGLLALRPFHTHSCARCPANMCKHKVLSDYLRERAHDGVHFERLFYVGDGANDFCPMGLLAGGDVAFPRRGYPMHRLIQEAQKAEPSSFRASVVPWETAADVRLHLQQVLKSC
Phosphomannomutase 2, sequence (O15305 whole entry): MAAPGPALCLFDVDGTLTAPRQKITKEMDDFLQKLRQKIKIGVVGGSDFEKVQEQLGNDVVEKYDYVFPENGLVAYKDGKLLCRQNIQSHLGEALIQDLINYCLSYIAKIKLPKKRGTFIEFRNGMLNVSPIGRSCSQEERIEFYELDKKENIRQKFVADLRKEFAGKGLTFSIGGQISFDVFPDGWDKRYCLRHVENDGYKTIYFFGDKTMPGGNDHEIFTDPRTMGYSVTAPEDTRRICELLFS

EC50 [1]: 10 µM (active)
Structure (SMILES): CCC(CC)CN1CCC[C@H](NC(=O)COc2ccc(F)c(Cl)c2)C1

IC50 (Phosphomannomutase 2): 26.9 µM (active)
IC50 [2]: 0.755 µM (active)
IC50 [3]: 24.1 µM (active)
Structure (SMILES): CCN(CC)CCOC(=O)c1ccc(-n2sc3ccccc3c2=O)cc1

EC50 (Mu-type opioid receptor): > 32 µM (inactive)
EC50 [4]: > 64 µM (inactive)
EC50 [5]: 6.62 µM (active)
EC50 [6]: 18.7 µM (inactive)
Structure (SMILES): COC(=O)c1ccc(CSc2nnc(-c3ccccn3)n2Cc2ccco2)cc1

Structure (SMILES): CC(=O)N1c2ccc(S(=O)(=O)N3CCN(c4ccc(C)cc4)CC3)cc2CC1C (stereo unspecified)
IC50 (Tumor necrosis factor): 4.32 µM (active)
IC50 (HEK293): > 20 µM (inactive)
IC50 [7]: 5.76 µM (active)
